What was measured:
[1] = test system: TNFα release from THP-1 cells; experiment: Inhibition of TNFα release from LPS-stimulated THP-1 cells, ELISA; type: cell-based; conditions: Homo sapiens, THP-1, THP-1 cells, read-out: [CELL] THP-1, IC50, TNF ALPHA, ELISA
Outline: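 TNFα released into supernatant after 18 h of 10 μg/ml LPS stimulation was quantified by ELISA and IC50 taken as 50% reduction by non-linear regression. THP-1 cells (10^6/ml; medium with 10% FBS, serum-free or 1% HSA) saw compound for 30 min at 37 °C beforehand; final DMSO ≤0.5%.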

p38α = target: T1, p38α (Homo sapiens, UniProt Q16539); experiment: p38 MAP Kinase assay: inhibition of ATF2 phosphorylation, ELISA; type: biochemical; conditions: ATF2 phosphorylation; read-out: [ENZ] P38 ALPHA, IC50, ELISA
T1 construct: p38 MAP Kinases are recombinant human full-length proteins with an amino-terminal GST fusion; GST (N); purchased Upstate Biotechnology Inc; host or cells: E. coli
T1 sequence (Q16539 whole entry, the tested form may be a part): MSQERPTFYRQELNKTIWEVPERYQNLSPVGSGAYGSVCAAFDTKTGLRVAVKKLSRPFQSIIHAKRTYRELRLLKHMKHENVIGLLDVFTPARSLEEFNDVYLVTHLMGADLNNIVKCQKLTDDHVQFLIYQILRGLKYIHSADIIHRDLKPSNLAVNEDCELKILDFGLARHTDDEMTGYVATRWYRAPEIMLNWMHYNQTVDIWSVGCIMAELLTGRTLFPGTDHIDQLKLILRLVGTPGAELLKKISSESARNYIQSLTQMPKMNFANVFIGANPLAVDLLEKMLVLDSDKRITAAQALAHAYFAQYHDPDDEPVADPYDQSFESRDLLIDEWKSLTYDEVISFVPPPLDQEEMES
Outline: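 In vitro phosphorylation of ATF2 at Thr69 by recombinant human GST-p38 MAP kinase, read by anti-phospho-ATF2 ELISA at 450 nm. Enzyme and compound pre-incubated 15 min at RT, then 30 min reaction at 37 °C with 40 μM ATP and 1.25 μM ATF2; buffer with or without 1% HSA (Method II or I).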

Row | SMILES | IC50 [1] [nM] | melting point [°C] | IC50 (p38α) [nM]
1 | CCN1CCN(c2nccc(Oc3ccc(NC(=O)c4cc(F)cc(N5CCCCC5)c4)c4ccccc34)n2)CC1 [Compound B398, N-(4-{[2-(4-Ethylpiperazin-1-yl)pyrimidin-4-yl]oxy}-1-naphthyl)-3-fluoro-5-piperidin-1-ylbenzamide] | 241 | 86 to 87 | 7.9
2 | O=C(Nc1ccc(Oc2ccnc(NCC3CC3)n2)c2ccccc12)c1cc(F)cc(N2CCOCC2)c1 [Compound B336, N-[4-({2-[(Cyclopropylmethyl)amino]pyrimidin-4-yl}oxy)-1-naphthyl]-3-fluoro-5-morpholin-4-ylbenzamide] | 5.8 | 116 to 117 | 2.5
3 | COc1ccc(CCOc2ccc(NC(=O)c3cc(F)cc(N4CCOCC4)c3)c3ccccc23)cc1OC [Compound B189, N-{4-[2-(3,4-Dimethoxyphenyl)ethoxy]-1-naphthyl}-3-fluoro-5-morpholin-4-ylbenzamide] | 2610 | 73 to 75 | 441
4 | O=C(Nc1ccc(OCCc2cccnc2)c2ccccc12)c1cc(F)cc(N2CCOCC2)c1 [Compound B190] | 7520 | 80 to 82 | 826
5 | Cc1ncsc1CCOc1ccc(NC(=O)c2cc(F)cc(N3CCOCC3)c2)c2ccccc12 [Compound B231, 3-Fluoro-N-{4-[2-(4-methyl-1,3-thiazol-5-yl)ethoxy]-1-naphthyl}-5-morpholin-4-ylbenzamide] | 193 | 186 to 187 | 27.7
6 | CC1CCN(c2nccc(Oc3ccc(NC(=O)c4cc(F)cc(N5CCCCC5)c4)c4ccccc34)n2)CC1 [Compound B381, 3-Fluoro-N-(4-{[2-(4-methylpiperidin-1-yl)pyrimidin-4-yl]oxy}-1-naphthyl)-5-piperidin-1-ylbenzamide] | 590 | 145 to 146 | 87.8
7 | O=C(Nc1ccc(Oc2ccnc(-n3ccnc3)n2)c2ccccc12)c1cc(F)cc(N2CCOCC2)c1 [Compound B325, 3-Fluoro-N-(4-{[2-(1H-imidazol-1-yl)pyrimidin-4-yl]oxy}-1-naphthyl)-5-morpholin-4-ylbenzamide] | 247 | 153 to 154 | 34.4
8 | CC1CCC(Oc2cc(F)cc(C(=O)Nc3ccc(OCCN4CCOCC4)c4ccccc34)c2)C1 (stereo not drawn) [Compound B227, 3-Fluoro-5-[(3-methylcyclopentyl)oxy]-N-[4-(2-morpholin-4-ylethoxy)-1-naphthyl]benzamide] | 4120 | 65 to 66 | 808
9 | O=C(Nc1ccc(Oc2ccnc(NC3CCC3)n2)c2ccccc12)c1cc(F)cc(N2CCCCC2)c1 [Compound B383, N-(4-{[2-(Cyclobutylamino)pyrimidin-4-yl]oxy}-1-naphthyl)-3-fluoro-5-piperidin-1-ylbenzamide] | 311 | 112 to 114 | 11.4
10 | CN(C(=N)N)c1nccc(Oc2ccc(NC(=O)c3cc(F)cc(N4CCOCC4)c3)c3ccccc23)n1 [Compound B367, N-[4-({2-[[amino(imino)methyl](methyl)amino]pyrimidin-4-yl}oxy)-1-naphthyl]-3-fluoro-5-morpholin-4-ylbenzamide] | 649 | 155 to 157 | 18.2
11 | O=C(Nc1ccc(Oc2ccnc(NC3CC3)n2)c2ccccc12)c1cc(F)cc(N2CCCCC2)c1 [Compound B382, N-(4-{[2-(Cyclopropylamino)pyrimidin-4-yl]oxy}-1-naphthyl)-3-fluoro-5-piperidin-1-ylbenzamide] | 185 | 157 to 158 | 6.9
12 | CS(=O)(=O)CCNc1nccc(Oc2ccc(NC(=O)c3cc(F)cc(N4CCCCC4)c3)c3ccccc23)n1 [Compound B422, 3-Fluoro-N-{4-[(2-{[2-(methylsulfonyl)ethyl]amino}pyrimidin-4-yl)oxy]-1-naphthyl}-5-piperidin-1-ylbenzamide] | 63.2 | 102 to 104 | 1.6
13 | CC(C)N(C)c1nccc(Oc2ccc(NC(=O)c3cc(F)cc(N4CCCCC4)c3)c3ccccc23)n1 [Compound B385, 3-Fluoro-N-[4-({2-[isopropyl(methyl)amino]pyrimidin-4-yl}oxy)-1-naphthyl]-5-piperidin-1-ylbenzamide] | > 1000 | 102 to 104 | 95.6
14 | COC(CN(C)c1nccc(Oc2ccc(NC(=O)c3cc(F)cc(N4CCOCC4)c3)c3ccccc23)n1)OC [Compound B351, N-[4-({2-[(2,2-Dimethoxyethyl)(methyl)amino]pyrimidin-4-yl}oxy)-1-naphthyl]-3-fluoro-5-morpholin-4-ylbenzamide] | 274 | 92 to 94 | 27.1
15 | CN1CCN(c2nccc(Oc3ccc(NC(=O)c4cc(F)cc(N5CCOCC5)c4)c4ccccc34)n2)CC1 [Compound B328, 3-Fluoro-N-(4-{[2-(4-methylpiperazin-1-yl)pyrimidin-4-yl]oxy}-1-naphthyl)-5-morpholin-4-ylbenzamide] | 149 | 195 to 197 | 4.4
16 | CC(C)(C)OC(=O)N1CCN(c2nccc(Oc3ccc(NC(=O)c4cc(F)cc(N5CCOCC5)c4)c4ccccc34)n2)CC1 [Compound B340, t-Butyl-4-[4-({4-[(3-fluoro-5-morpholin-4-ylbenzoyl)amino]-1-naphthyl}oxy)pyrimidin-2-yl]piperazine-1-carboxylate] | > 1000 | 131 to 133 | 55.9
17 | O=C(Nc1ccc(OCCN2CCOCC2)c2ccccc12)c1cc(F)cc(N2CCCCC2)c1 [Compound B66, 3-Fluoro-N-[4-(2-morpholin-4-ylethoxy)-1-naphthyl]-5-piperidin-1-ylbenzamide] | 6050 | 150 to 151 | 112
18 | O=C(Nc1ccc(Oc2ccnc(NC3CCS(=O)(=O)C3)n2)c2ccccc12)c1cc(F)cc(N2CCOCC2)c1 (stereo not drawn) [Compound B347, N-[4-({2-[(1,1-Dioxidotetrahydro-3-thienyl)amino]pyrimidin-4-yl}oxy)-1-naphthyl]-3-fluoro-5-morpholin-4-ylbenzamide] | 42.2 | 150 to 151 | 13.9
19 | O=C(Nc1ccc(OCCN2CCOCC2)c2ccccc12)c1cc(N2CCOCC2)ncn1 [Compound B54, 6-Morpholin-4-yl-pyrimidine-4-carboxylic acid [4-(2-morpholin-4-yl-ethoxy)-naphthalen-1-yl]-amide] | > 10000 | 50 to 51 | > 10000
20 | CSc1nccc(Oc2ccc(NC(=O)c3cc(F)cc(N4CCCC4)c3)c3ccccc23)n1 [Compound B264, 3-Fluoro-N-(4-{[2-(methylthio)pyrimidin-4-yl]oxy}-1-naphthyl)-5-pyrrolidin-1-ylbenzamide] | 177 | 180 to 181 | 189
21 | CC(C)(C)OC(=O)NC1CCN(c2nccc(Oc3ccc(NC(=O)c4cc(F)cc(N5CCOCC5)c4)c4ccccc34)n2)CC1 [Compound B366, t-Butyl-{1-[4-({4-[(3-fluoro-5-morpholin-4-ylbenzoyl)amino]-1-naphthyl}oxy)pyrimidin-2-yl]piperidin-4-yl}-carbamate] | 386 | 214 to 216 | 28.3
22 | CC1=NC(C)(COc2ccc(NC(=O)c3cc(F)cc(N4CCOCC4)c3)c3ccccc23)CO1 (stereo not drawn) [Compound B232, N-{4-[(2,4-Dimethyl-4,5-dihydro-1,3-oxazol-4-yl)methoxy]-1-naphthyl}-3-fluoro-5-morpholin-4-ylbenzamide] | 4280 | 203 to 206 | 7860
23 | O=C(Nc1ccc(Oc2ccnc(NCC3OCCO3)n2)c2ccccc12)c1cc(F)cc(N2CCOCC2)c1 [Compound B369, N-[4-({2-[(1,3-dioxolan-2-ylmethyl)amino]pyrimidin-4-yl}oxy)-1-naphthyl]-3-fluoro-5-morpholin-4-ylbenzamide] | 33.3 | 122 to 124 | 2.9
24 | O=C(Nc1ccc(OCc2ccncc2)c2ccccc12)c1cc(F)cc(OC2CCCCC2)c1 [Compound B235, 3-(Cyclohexyloxy)-5-fluoro-N-[4-(pyridin-4-ylmethoxy)-1-naphthyl]benzamide] | 557 | 176 to 178 | 125
25 | C#CCN(C)c1nccc(Oc2ccc(NC(=O)c3cc(F)cc(N4CCOCC4)c3)c3ccccc23)n1 [Compound B352, 3-Fluoro-N-[4-({2-[methyl(prop-2-yn-1-yl)amino]pyrimidin-4-yl}oxy)-1-naphthyl]-5-morpholin-4-ylbenzamide] | 518 | 97 to 98 | 32.5
26 | CSc1nccc(Oc2ccc(NC(=O)c3cc(F)cc(N4CCCCC4)c3)c3ccccc23)n1 [Compound B311, 3-Fluoro-N-(4-{[2-(methylthio)pyrimidin-4-yl]oxy}-1-naphthyl)-5-piperidin-1-ylbenzamide] | 179 | 170 to 172 | 56
27 | COc1ccc(CCOc2ccc(NC(=O)c3cc(F)cc(N4CCCCC4)c3)c3ccccc23)cc1OC [Compound B179, N-{4-[2-(3,4-Dimethoxyphenyl)ethoxy]-1-naphthyl}-3-fluoro-5-piperidin-1-ylbenzamide] | 2050 | 158 to 160 | 1060
